20 compounds from article PMC6209510 (European journal of medicinal chemistry, 2017) can be followed below.

Bounds are passed on as bounds.

In general, IC50 refers to the point on the concentration scale where inhibition reaches its midpoint.

The test system of one data set is P. falciparum W2.
Assay: not given
It is filed as cell-based. To be noted: Plasmodium falciparum, W2, 48 h, read-out: P. falciparum W2 IC50.
In the case of `CCN(CC)CCCC(C)Nc1ccnc2cc(Cl)ccc12` (stereo not drawn) [CQ, Chloroquine, reference compound], the concentration for half-maximal inhibition (IC50) worked out at 0.422 µM.

The next data set deals with Vero cells. The experiment in a line: Cytotoxicity assay on Vero cells. Format: cell-based, African green monkey. To be noted: 48 h; tested at a maximum concentration of 8 μM; NC = not cytotoxic.
With “N1,N1,N10,N10-tetrakis(4-methoxybenzyl) decane-1,10 diamine [Compound 40]”, the “Cytotoxicity Vero cells IC50” value was “NC (not cytotoxic at the maximum concentration tested (4.46 μg/mL))”.

Test system in another data set: not listed separately
The experiment in a line: Cytotoxicity assay on Vero cells. To be noted: African green monkey, Vero cells (mammalian kidney fibroblasts). Format: cell-based, African green monkey.
Compound `c1ccc(CNCCCNCc2ccccc2)cc1` [Compound 1, N1,N3-dibenzylpropane-1,3-diamine] displayed an IC50 at 48 h of more than 4.76 µg/mL. As for `COc1ccc(CNCCCNCc2ccc(OC)cc2)cc1` [Compound 7, N1,N3-bis(4-methoxybenzyl)propane-1,3-diamine], the IC50 at 48 h is more than 4.76 µg/mL.

`COc1ccc(CNCCCCNCc2ccc(OC)cc2)cc1` [Compound 8, N1,N4-bis(4-methoxybenzyl)butane-1,4-diamine] displayed an IC50 at 48 h of more than 4.76 µg/mL. For the compound `COc1ccc(CNCCCCCCNCc2ccc(OC)cc2)cc1` [Compound 9, N1,N6-bis(4-methoxybenzyl)hexane-1,6-diamine], half-maximal inhibition (IC50 at 48 h) required 8.32 µM. In turn, `COc1ccc(CNCCCCCCCCNCc2ccc(OC)cc2)cc1` [Compound 10, N1,N8-bis(4-methoxybenzyl)octane-1,8-diamine] returned an IC50 at 48 h of more than 4.76 µg/mL. Take `COc1ccc(CNCCCCCCCCCCNCc2ccc(OC)cc2)cc1` [Compound 11, N1,N10-bis(4-methoxybenzyl)decane-1,10-diamine]: the IC50 at 48 h was more than 4.76 µg/mL. In turn, `COc1ccc(CNCCCCCCCCCCCCNCc2ccc(OC)cc2)cc1` [Compound 12, N1,N12-bis(4-methoxybenzyl)dodecane-1,12-diamine] showed a half-inhibitory concentration (IC50) at 48 h of more than 4.76 µg/mL. On the same count and under the same terms, with `COc1ccc(CNCCCNCc2ccc(OC)c(O)c2)cc1O` [Compound 19, 5,5’-((propane-1,3-diylbis(azanediyl))bis(methylene))bis(2-methoxyphenol)] the figure was more than 4.76 µg/mL.

As for `COc1ccc(CNCCCCNCc2ccc(OC)c(O)c2)cc1O` [Compound 20, 5,5’-((butane-1,4-diylbis(azanediyl))bis(methylene))bis(2-methoxyphenol)], the half-inhibitory concentration (IC50) at 48 h is more than 4.76 µg/mL. On the same count and under the same terms, with `COc1ccc(CNCCCCCCNCc2ccc(OC)c(O)c2)cc1O` [Compound 21, 5,5’-((hexane-1,6-diylbis(azanediyl))bis(methylene))bis(2-methoxyphenol)] the figure was more than 4.76 µg/mL; with `COc1ccc(CNCCCCCCCCNCc2ccc(OC)c(O)c2)cc1O` [Compound 22, 5,5’-((octane-1,8-diylbis(azanediyl))bis(methylene))bis(2-methoxyphenol)], more than 4.76 µg/mL; with `COc1ccc(CNCCCCCCCCCCNCc2ccc(OC)c(O)c2)cc1O` [Compound 23, 5,5’-((decane-1,10-diylbis(azanediyl))bis(methylene)) bis(2-methoxyphenol)], more than 4.76 µg/mL. As to `COc1ccc(CNCCCCCCCCCCCCNCc2ccc(OC)c(O)c2)cc1O` [Compound 24, 5,5’-((dodecane-1,12-diylbis(azanediyl))bis(methylene))bis(2-methoxyphenol)], the half-inhibitory concentration (IC50) at 48 h was more than 4.76 µg/mL. `COc1cc(CNCCCNCc2ccc(OCc3ccccc3)c(OC)c2)ccc1OCc1ccccc1` [Compound 25, N1,N3-bis(4-(benzyloxy)-3-methoxybenzyl) propane-1,3-diamine] had an IC50 at 48 h of 6.65 µM. As to `COc1cc(CNCCCCNCc2ccc(OCc3ccccc3)c(OC)c2)ccc1OCc1ccccc1` [Compound 26, N1,N4-bis(4-(benzyloxy)-3-methoxybenzyl) butane-1,4-diamine], the concentration for half-maximal inhibition (IC50) at 48 h is more than 4.76 µg/mL.

`COc1cc(CNCCCCCCNCc2ccc(OCc3ccccc3)c(OC)c2)ccc1OCc1ccccc1` [Compound 27, N1,N6-bis(4-(benzyloxy)-3-methoxybenzyl) hexane-1,6-diamine] yielded a 50% inhibitory concentration (IC50) at 48 h of more than 4.76 µg/mL. Compound `COc1cc(CNCCCCCCCCCCNCc2ccc(OCc3ccccc3)c(OC)c2)ccc1OCc1ccccc1` [Compound 29, N1,N10-bis(4-(benzyloxy)-3-methoxybenzyl) decane-1,10-diamine] registered a half-maximal inhibitory concentration (IC50) at 48 h of more than 4.76 µg/mL.

On to `COc1cc(CNCCCCCCCCCCCCNCc2ccc(OCc3ccccc3)c(OC)c2)ccc1OCc1ccccc1` [Compound 30, N1,N12-bis(4-(benzyloxy)-3-methoxybenzyl) dodecane-1,12-diamine], for which the IC50 at 48 h was more than 4.76 µg/mL.

The next data set concerns P. falciparum D6.
Assay: not given
As to conditions: Plasmodium falciparum, D6, 48 h, read-out: P. falciparum D6 IC50. It is filed as cell-based, Plasmodium falciparum.
As for `CCN(CC)CCCC(C)Nc1ccnc2cc(Cl)ccc12` (stereo not drawn) [CQ, Chloroquine, reference compound], the concentration for half-maximal inhibition (IC50) was determined as 0.083 µM.

Staying with this data set, now noted: Vero cells vs P. falciparum D6.
For `COc1cc(CNCCCCNCc2ccc(OCc3ccccc3)c(OC)c2)ccc1OCc1ccccc1` [Compound 26, N1,N4-bis(4-(benzyloxy)-3-methoxybenzyl) butane-1,4-diamine], the “SI (Selectivity Index: IC50 Vero Cells/IC50 Parasites), P. falciparum D6” value is listed as more than 27.4.

In the case of `COc1cc(CNCCCCCCNCc2ccc(OCc3ccccc3)c(OC)c2)ccc1OCc1ccccc1` [Compound 27, N1,N6-bis(4-(benzyloxy)-3-methoxybenzyl) hexane-1,6-diamine], the “SI (Selectivity Index: IC50 Vero Cells/IC50 Parasites), P. falciparum D6” value was more than 31.7.

In another data set the test system is human foreskin fibroblast (HFF). The experiment in a line: Cytotoxicity on fibroblast. Format: cell-based. As to conditions: no cytotoxicity at 10 μM.
Compound `COc1cc(CNCCCNCc2ccc(OCc3ccccc3)c(OC)c2)ccc1OCc1ccccc1` [Compound 25, N1,N3-bis(4-(benzyloxy)-3-methoxybenzyl) propane-1,3-diamine] displayed a cytotoxicity on fibroblast of more than 10 µM.
